Some test systems named below: SF-539 CNS; NCI/ADR-RES ovarian; SK-MEL-28 melanoma; SN12C renal; HT29 colon; EKVX NSCLC; SNB-19 CNS; OVCAR-8 ovarian; RXF 393 renal; SK-OV-3 ovarian.
What all share (assay): NCI tumour cell line growth inhibition, 48 h

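Following 48 hours of exposure in 96-well plates, responses at five concentrations were used to interpolate endpoints linearly. TGI marks complete inhibition of growth.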

This passage reports TGI results from PubChem BioAssay (NCI).

As for `CC(=O)OCC1OC(n2c3c(c(-c4ccco4)c(C#N)c2=S)CCCC3)C(OC(C)=O)C(OC(C)=O)C1OC(C)=O` (stereo not given), the TGI with SF-539 CNS was above 31.6 µM; with NCI/ADR-RES ovarian, above 31.6 µM; in the assay on SK-MEL-28 melanoma, above 31.6 µM; in the assay with SN12C renal it was above 31.6 µM; with HT29 colon it was above 31.6 µM; in the assay with EKVX NSCLC, 29.8 µM. In addition, the TGI in the assay with SNB-19 CNS was 26.2 µM; with OVCAR-8 ovarian it was above 100 µM.
As for `CCC1(O)CN(CCOC)[C@H]2C[C@@H]1C(=O)c1[nH]c3ccccc3c12` (stereo not given in full), the TGI with SF-539 CNS, with NCI/ADR-RES ovarian, with SK-MEL-28 melanoma, with SN12C renal, with HT29 colon and with EKVX NSCLC was above 100 µM in each case. Also, the TGI in the assay on SNB-19 CNS, in the assay with OVCAR-8 ovarian and in the assay on RXF 393 renal was above 100 µM in each case.
`NC(CO)c1ccccc1` (stereo not given): the TGI in the assay with SF-539 CNS, in the assay on SK-OV-3 ovarian, with SK-MEL-28 melanoma, in the assay with HT29 colon, in the assay on EKVX NSCLC and in the assay with SNB-19 CNS was above 100 µM each time. Moreover, the TGI in the assay on OVCAR-8 ovarian and with RXF 393 renal was above 100 µM throughout.
`CCCCCCCC(CC(=O)O)OC(=O)CC(CCCCCCC)OC1OC(C)C(O)C(O)C1OC1OC(C)C(O)C(O)C1O` (stereo not given): the TGI in the assay on SF-539 CNS, in the assay on SK-OV-3 ovarian, in the assay with NCI/ADR-RES ovarian, with SK-MEL-28 melanoma, with SN12C renal and in the assay with HT29 colon was above 100 µM each time. For the same molecule, the TGI in the assay with EKVX NSCLC, with SNB-19 CNS and in the assay with OVCAR-8 ovarian was above 100 µM in each case.
Take `c1ccc(C/C(=N\Nc2nc3ccccc3o2)c2ccccn2)cc1`: the TGI with SF-539 CNS is 1.21 µM; in the assay on SK-OV-3 ovarian, 0.0726 µM; in the assay with NCI/ADR-RES ovarian, 0.0824 µM; in the assay on SN12C renal, 3.67 µM; with HT29 colon, 4.56 µM; in the assay on EKVX NSCLC it was below 0.0267 µM. For the same molecule, the TGI in the assay on SNB-19 CNS was 20.5 µM; in the assay on OVCAR-8 ovarian, 1.42 µM; in the assay with RXF 393 renal, 1.92 µM.
For the molecule `O=C(O)CCCc1nc2c(n1-c1ccccc1)C(=O)c1ccccc1C2=O`, the TGI with SF-539 CNS, in the assay with SK-OV-3 ovarian, in the assay on NCI/ADR-RES ovarian, with SK-MEL-28 melanoma, in the assay with SN12C renal and in the assay with EKVX NSCLC was above 100 µM throughout. Further, the TGI in the assay on SNB-19 CNS and in the assay on OVCAR-8 ovarian was above 100 µM in each case.
With `CSc1s[s+]c(SC)c1-c1ccccc1`, the TGI in the assay on SF-539 CNS stood at 32.4 µM; in the assay with SK-OV-3 ovarian it was 38 µM; in the assay on NCI/ADR-RES ovarian it was 42.1 µM; with SN12C renal, 35 µM; in the assay on HT29 colon, 32.3 µM; with EKVX NSCLC, 33 µM. The TGI in the assay with SNB-19 CNS came out at 35.1 µM; in the assay with OVCAR-8 ovarian it was 40.3 µM; with RXF 393 renal, 30.4 µM.
For the molecule `COC(=O)c1ccc(OCc2ccc3nc(-c4ccccc4)c(Cl)nc3c2)cc1`, the TGI in the assay with SF-539 CNS, in the assay on NCI/ADR-RES ovarian, with SK-MEL-28 melanoma, with SN12C renal, in the assay with HT29 colon and with EKVX NSCLC was above 100 µM throughout. The TGI in the assay on SNB-19 CNS and in the assay on OVCAR-8 ovarian was above 100 µM throughout.
With `COc1ccc(NC(=O)C2=C(SC)C(=O)N=C2N)cc1`, the TGI in the assay with SK-OV-3 ovarian, with NCI/ADR-RES ovarian, with SK-MEL-28 melanoma, with HT29 colon, with EKVX NSCLC and with SNB-19 CNS was above 100 µM in each case. The TGI with OVCAR-8 ovarian and in the assay with RXF 393 renal was above 100 µM throughout.
Turning to `C=C1c2nc3ccccc3n2C=C(c2ccccc2)N1c1ccc(OC)cc1`, the TGI is 26.9 µM with SF-539 CNS; above 100 µM in the assay with SK-OV-3 ovarian; 71.4 µM in the assay with NCI/ADR-RES ovarian; above 100 µM in the assay with SN12C renal; above 100 µM with EKVX NSCLC; 55 µM in the assay with OVCAR-8 ovarian. Also, the TGI in the assay with RXF 393 renal amounted to 83.5 µM.
On to `COC(=O)CCc1ccc2c(c1)CC1(C2)Cc2ccc(CCC(=O)OC)cc2C1`, for which the TGI in the assay with SF-539 CNS, with SK-OV-3 ovarian, in the assay with NCI/ADR-RES ovarian, in the assay on SN12C renal, with HT29 colon and with EKVX NSCLC was above 100 µM in each case. Moreover, the TGI in the assay on OVCAR-8 ovarian and in the assay with RXF 393 renal was above 100 µM in each case.
`Cc1ccc(C2=Nn3c(nc4sc(-c5ccccc5)cc4c3=O)SC2)cc1`: the TGI with SF-539 CNS, in the assay with SK-OV-3 ovarian, in the assay on NCI/ADR-RES ovarian, in the assay on SK-MEL-28 melanoma, with SN12C renal and in the assay on HT29 colon was above 100 µM throughout. Further, the TGI in the assay with EKVX NSCLC and in the assay with OVCAR-8 ovarian was above 100 µM throughout.
As for `COC(=O)c1cc2c3c(c(C(C)=O)c(OC)c2[nH]1)NCC3`, the TGI with SF-539 CNS, in the assay on SK-OV-3 ovarian, with NCI/ADR-RES ovarian, in the assay with SN12C renal, in the assay with HT29 colon and with EKVX NSCLC was above 50 µM in each case. The TGI with SNB-19 CNS, in the assay with OVCAR-8 ovarian and with RXF 393 renal was above 50 µM each time.
Regarding `COc1cccc(N2N=C3c4ccccc4-n4c(nc5ccccc54)C3C2N)c1` (stereo not given), the TGI in the assay on SF-539 CNS, in the assay with NCI/ADR-RES ovarian, with SK-MEL-28 melanoma, in the assay on SN12C renal, with HT29 colon and in the assay with EKVX NSCLC was above 100 µM throughout. Also, the TGI in the assay with SNB-19 CNS and in the assay on OVCAR-8 ovarian was above 100 µM each time.
Turning to `CC(=O)Nc1ncc2c(n1)-c1ccccc1OC2`, the TGI in the assay on SF-539 CNS, with SK-OV-3 ovarian, in the assay with NCI/ADR-RES ovarian, in the assay on SN12C renal, with HT29 colon and with EKVX NSCLC was above 100 µM each time. The TGI in the assay on SNB-19 CNS, with OVCAR-8 ovarian and in the assay with RXF 393 renal was above 100 µM each time.
